The assay addresses T1, hTLR9 (Homo sapiens, UniProt Q9NR96).
T1 sequence (Q9NR96 26-1032): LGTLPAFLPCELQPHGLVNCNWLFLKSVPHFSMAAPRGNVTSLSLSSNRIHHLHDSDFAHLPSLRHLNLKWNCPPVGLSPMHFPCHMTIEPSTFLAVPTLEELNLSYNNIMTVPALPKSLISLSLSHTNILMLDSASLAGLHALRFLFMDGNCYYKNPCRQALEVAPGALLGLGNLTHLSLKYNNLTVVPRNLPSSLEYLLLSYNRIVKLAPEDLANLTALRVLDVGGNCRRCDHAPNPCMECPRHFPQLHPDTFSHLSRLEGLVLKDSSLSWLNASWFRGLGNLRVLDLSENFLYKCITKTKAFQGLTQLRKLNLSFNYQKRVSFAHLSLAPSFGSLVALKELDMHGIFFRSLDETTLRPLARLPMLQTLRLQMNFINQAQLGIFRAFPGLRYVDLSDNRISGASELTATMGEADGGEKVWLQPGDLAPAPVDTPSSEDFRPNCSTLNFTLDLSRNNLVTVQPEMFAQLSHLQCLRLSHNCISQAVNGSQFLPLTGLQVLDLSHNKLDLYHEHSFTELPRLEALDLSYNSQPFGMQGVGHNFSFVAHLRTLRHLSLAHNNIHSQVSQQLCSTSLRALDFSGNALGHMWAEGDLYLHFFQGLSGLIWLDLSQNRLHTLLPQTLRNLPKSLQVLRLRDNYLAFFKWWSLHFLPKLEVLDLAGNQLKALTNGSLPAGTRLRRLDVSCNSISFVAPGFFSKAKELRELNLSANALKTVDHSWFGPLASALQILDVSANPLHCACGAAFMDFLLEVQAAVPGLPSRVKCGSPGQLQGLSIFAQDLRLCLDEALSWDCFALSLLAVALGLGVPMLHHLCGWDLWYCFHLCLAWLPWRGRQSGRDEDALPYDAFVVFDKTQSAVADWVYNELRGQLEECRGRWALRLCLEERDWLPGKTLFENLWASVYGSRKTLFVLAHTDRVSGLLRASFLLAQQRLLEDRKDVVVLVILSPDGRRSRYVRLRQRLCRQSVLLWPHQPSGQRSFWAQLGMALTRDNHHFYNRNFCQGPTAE
Description: HEK293-Blue-hTLR-9 cells assay (SEAP reporter, ODN2006 stimulation). Type of assay: cell-based. Also on record: host or cells: HEK293 (HEK-Blue hTLR9). The settings on record: HEK293-Blue-hTLR9 cells, ODN2006, 20 hrs; read-out: HEK/hTLR9 IC50. The procedure, abridged: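 Antagonism read as lowered SEAP reporter absorbance (620–655 nm, QUANTI-Blue, 2 h, 37 °C) in supernatants. Before that, ODN2006-stimulated HEK293-Blue cells stably expressing human TLR9 were exposed to compound dilutions at 1% final DMSO for 20 h at 37 °C.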
As for `CO[C@@H]1CN(c2nc(C)cc(N3CCN(C[C@H]4CN(c5ccc(C#N)c6ncccc56)C[C@@H](C)O4)CC3)n2)C[C@H]1N` (single isomer, unassigned) [Example 69B], the IC50 turned out to be 70 nM. The result for `Cc1cc(N2CCN(C[C@H]3CN(c4ccc(C#N)c5ncccc45)C[C@@H](C)O3)CC2)nc(N2C[C@H](N)C[C@H](F)C2)n1` (relative stereo) [Example 74, 5-[(2R,6S)-2-methyl-6-[[4-[6-methyl-2-[cis-3-amino-5-fluoro-1-piperidyl]pyrimidin-4-yl]piperazin-1-yl]methyl]morpholin-4-yl]quinoline-8-carbonitrile] reads 72 nM; that for `Cc1cc(N2CCN(C[C@H]3CN(c4ccc(C#N)c5ncccc45)C[C@@H](C)O3)CC2)nc(N[C@@H]2CNC[C@@H]2F)n1` [Example 71, 5-[(2S,6R)-2-[[4-[2-[[(3R,4S)-4-fluoropyrrolidin-3-yl]amino]-6-methyl-pyrimidin-4-yl]piperazin-1-yl]methyl]-6-methyl-morpholin-4-yl]quinoline-8-carbonitrile], 66 nM; that for `Cc1cc(N2CCN(C[C@H]3CN(c4ccc(C#N)c5ncccc45)C[C@@H](C)O3)CC2)nc(N2CCC(N)C(F)(F)C2)n1` (stereo partly drawn) [Example 86, 5-[(2S,6R)-2-[[4-[2-(4-amino-3,3-difluoro-1-piperidyl)-6-methyl-pyrimidin-4-yl]piperazin-1-yl]methyl]-6-methyl-morpholin-4-yl]quinoline-8-carbonitrile], 189 nM. `Cc1cc(N2CCN(C[C@H]3CN(c4ccc(C#N)c5ncccc45)C[C@@H](C)O3)CC2)nc(N2CC[C@@H](F)[C@@H](N)C2)n1` [Example 83, 5-[(2R,6S)-2-methyl-6-[[4-[6-methyl-2-[(3S,4R)-3-amino-4-fluoro-1-piperidyl]-pyrimidin-4-yl]piperazin-1-yl]methyl]morpholin-4-yl]quinoline-8-carbonitrile]: the IC50 is 96 nM. With `Cc1cc(N2CCN(C[C@H]3CN(c4ccc(C#N)c5ncccc45)C[C@@H](C)O3)CC2)nc(N2CC[C@@H](N)C(F)C2)n1` (stereo in doubt) [Example 82, 5-[(2S,6R)-2-[[4-[2-[(3R,4R)-4-amino-3-fluoro-1-piperidyl]-6-methyl-pyrimidin-4-yl]piperazin-1-yl]methyl]-6-methyl-morpholin-4-yl]quinoline-8-carbonitrile], the IC50 came to 56 nM. The result for `Cc1cc(N2CCN(C[C@H]3CN(c4ccc(C#N)c5ncccc45)C[C@@H](C)O3)CC2)nc(N[C@@H]2CNC[C@H]2F)n1` [Example 76, 5-[(2S,6R)-2-[[4-[2-[[(3R,4R)-4-fluoropyrrolidin-3-yl]amino]-6-methyl-pyrimidin-4-yl]piperazin-1-yl]methyl]-6-methyl-morpholin-4-yl]quinoline-8-carbonitrile] reads 50 nM; that for `Cc1cc(N2CCN(C[C@H]3CN(c4ccc(C#N)c5ncccc45)C[C@@H](C)O3)CC2)nc(N2C[C@@H](N)[C@H](F)C2)n1` [Example 79, 5-[(2S,6R)-2-[[4-[2-[(3R,4R)-3-amino-4-fluoro-pyrrolidin-1-yl]-6-methyl-pyrimidin-4-yl]piperazin-1-yl]methyl]-6-methyl-morpholin-4-yl]quinoline-8-carbonitrile], 63 nM; that for `CO[C@H]1CN(c2nc(C)cc(N3CCN(C[C@H]4CN(c5ccc(C#N)c6ncccc56)C[C@@H](C)O4)CC3)n2)CCC1N` (stereo in doubt) [Example 90, 5-[(2S,6R)-2-[[4-[2-[(3S,4S)-4-amino-3-methoxy-1-piperidyl]-6-methyl-pyrimidin-4-yl]piperazin-1-yl]methyl]-6-methyl-morpholin-4-yl]quinoline-8-carbonitrile], 54 nM. In the case of `CO[C@H]1CN(c2nc(C)cc(N3CCN(C[C@H]4CN(c5ccc(C#N)c6ncccc56)C[C@@H](C)O4)CC3)n2)C[C@@H]1N` (single isomer, unassigned) [Example 69A], the IC50 was 54 nM. The result for `Cc1cc(N2CCN(C[C@H]3CN(c4ccc(C#N)c5ncccc45)C[C@@H](C)O3)CC2)nc(N2C[C@H](N)C[C@@H](F)C2)n1` (relative stereo) [Example 75, 5-[(2R,6S)-2-methyl-6-[[4-[6-methyl-2-[trans-3-amino-5-fluoro-1-piperidyl]pyrimidin-4-yl]piperazin-1-yl]methyl]morpholin-4-yl]quinoline-8-carbonitrile] reads 57 nM. On to `Cc1cc(N2CCN(C[C@H]3CN(c4ccc(C#N)c5ncccc45)C[C@@H](C)O3)CC2)nc(N2CC(N)CC(F)(F)C2)n1` (stereo partly drawn) [Example 80, 5-[(2S,6R)-2-[[4-[2-(5-amino-3,3-difluoro-1-piperidyl)-6-methyl-pyrimidin-4-yl]piperazin-1-yl]methyl]-6-methyl-morpholin-4-yl]quinoline-8-carbonitrile], for which the IC50 was determined as 120 nM. `Cc1cc(N2CCN(C[C@H]3CN(c4ccc(C#N)c5ncccc45)C[C@@H](C)O3)CC2)nc(NC2CNCC2F)n1` (stereo in doubt) [Example 73, 5-[(2S,6R)-2-[[4-[2-[[(3S,4R)-4-fluoropyrrolidin-3-yl]amino]-6-methyl-pyrimidin-4-yl]piperazin-1-yl]methyl]-6-methyl-morpholin-4-yl]quinoline-8-carbonitrile]: the IC50 is 69 nM.

`COC1CNCC1Nc1nc(C)cc(N2CCN(C[C@H]3CN(c4ccc(C#N)c5ncccc45)C[C@@H](C)O3)CC2)n1` (stereo in doubt) [Example 70, 5-[(2S,6R)-2-[[4-[2-[[(3R,4R)-4-methoxypyrrolidin-3-yl]amino]-6-methyl-pyrimidin-4-yl]piperazin-1-yl]methyl]-6-methyl-morpholin-4-yl]quinoline-8-carbonitrile]: the IC50 was 80 nM.

Take `Cc1cc(N2CCN(C[C@H]3CN(c4ccc(C#N)c5ncccc45)C[C@@H](C)O3)CC2)nc(N2CC[C@@H](F)C(N)C2)n1` (single isomer, unassigned) [Example 84]: the IC50 turned out to be 104 nM. Under `Cc1cc(N2CCN(C[C@H]3CN(c4ccc(C#N)c5ncccc45)C[C@@H](C)O3)CC2)nc(N2C[C@@H](N)C[C@@H](F)C2)n1` [Example 77, 5-[(2S,6R)-2-[[4-[2-[(3S,5R)-3-amino-5-fluoro-1-piperidyl]-6-methyl-pyrimidin-4-yl]piperazin-1-yl]methyl]-6-methyl-morpholin-4-yl]quinoline-8-carbonitrile] stands 56 nM; under `C[C@@H]1CN(c2ccc(C#N)c3ncccc23)C[C@H](CN2CCN(c3ccccc3C3CNCCO3)CC2)O1` (stereo partly drawn) [Example 89, 5-[(2R,6S)-2-methyl-6-[[4-(2-morpholin-2-ylphenyl)piperazin-1-yl]methyl]morpholin-4-yl]quinoline-8-carbonitrile], 99 nM. In the case of `Cc1cc(N2CCN(C[C@H]3CN(c4ccc(C#N)c5ncccc45)C[C@@H](C)O3)CC2)nc(N2CC(N)C2)n1` [Example 87, 5-[(2S,6R)-2-[[4-[2-(3-aminoazetidin-1-yl)-6-methyl-pyrimidin-4-yl]piperazin-1-yl]methyl]-6-methyl-morpholin-4-yl]quinoline-8-carbonitrile], the IC50 came to 75 nM. For `COC1CN(c2nc(C)cc(N3CCN(C[C@H]4CN(c5ccc(C#N)c6ncccc56)C[C@@H](C)O4)CC3)n2)CC1N` (single isomer, unassigned) [Example 88], the IC50 turned out to be 71 nM. Under `Cc1cc(N2CCN(C[C@H]3CN(c4ccc(C#N)c5ncccc45)C[C@@H](C)O3)CC2)nc(N2CCNC(C(C)(C)O)C2)n1` (stereo partly drawn) [Example 81, 5-[(2S,6R)-2-[[4-[2-[3-(1-hydroxy-1-methyl-ethyl)piperazin-1-yl]-6-methyl-pyrimidin-4-yl]piperazin-1-yl]methyl]-6-methyl-morpholin-4-yl]quinoline-8-carbonitrile] stands 46 nM.

Turning to `CO[C@@H]1CN(c2nc(C)cc(N3CCN(C[C@H]4CN(c5ccc(C#N)c6ncccc56)C[C@@H](C)O4)CC3)n2)C[C@@H]1N` [Example 72, 5-[(2S,6R)-2-[[4-[2-[(3S,4R)-3-amino-4-methoxy-pyrrolidin-1-yl]-6-methyl-pyrimidin-4-yl]piperazin-1-yl]methyl]-6-methyl-morpholin-4-yl]quinoline-8-carbonitrile], the IC50 stood at 46 nM.

The record behind these values is US20210395239A1 (Hoffmann-La Roche Inc., priority 2018, published 2021).
